Test results from patent US9776995B2, “Bicyclic sulfonamide compounds as sodium channel inhibitors” (AMGEN INC., priority 2013, dated 2017).
Like-named read-outs stand apart in the source and are kept apart here.

How the values were obtained:
[1] = target: Nav 1.7 (Homo sapiens (Human), UniProt Q15858); assay: in-vitro Nav 1.7 PX data; type: cell-based
[2] = target: Nav 1.5 (Homo sapiens (Human), UniProt Q14524); assay: in-vitro Nav 1.5 PX data; conditions: read-out: Nav 1.5 PX IC50
Nav 1.5, sequence (Q14524 whole entry): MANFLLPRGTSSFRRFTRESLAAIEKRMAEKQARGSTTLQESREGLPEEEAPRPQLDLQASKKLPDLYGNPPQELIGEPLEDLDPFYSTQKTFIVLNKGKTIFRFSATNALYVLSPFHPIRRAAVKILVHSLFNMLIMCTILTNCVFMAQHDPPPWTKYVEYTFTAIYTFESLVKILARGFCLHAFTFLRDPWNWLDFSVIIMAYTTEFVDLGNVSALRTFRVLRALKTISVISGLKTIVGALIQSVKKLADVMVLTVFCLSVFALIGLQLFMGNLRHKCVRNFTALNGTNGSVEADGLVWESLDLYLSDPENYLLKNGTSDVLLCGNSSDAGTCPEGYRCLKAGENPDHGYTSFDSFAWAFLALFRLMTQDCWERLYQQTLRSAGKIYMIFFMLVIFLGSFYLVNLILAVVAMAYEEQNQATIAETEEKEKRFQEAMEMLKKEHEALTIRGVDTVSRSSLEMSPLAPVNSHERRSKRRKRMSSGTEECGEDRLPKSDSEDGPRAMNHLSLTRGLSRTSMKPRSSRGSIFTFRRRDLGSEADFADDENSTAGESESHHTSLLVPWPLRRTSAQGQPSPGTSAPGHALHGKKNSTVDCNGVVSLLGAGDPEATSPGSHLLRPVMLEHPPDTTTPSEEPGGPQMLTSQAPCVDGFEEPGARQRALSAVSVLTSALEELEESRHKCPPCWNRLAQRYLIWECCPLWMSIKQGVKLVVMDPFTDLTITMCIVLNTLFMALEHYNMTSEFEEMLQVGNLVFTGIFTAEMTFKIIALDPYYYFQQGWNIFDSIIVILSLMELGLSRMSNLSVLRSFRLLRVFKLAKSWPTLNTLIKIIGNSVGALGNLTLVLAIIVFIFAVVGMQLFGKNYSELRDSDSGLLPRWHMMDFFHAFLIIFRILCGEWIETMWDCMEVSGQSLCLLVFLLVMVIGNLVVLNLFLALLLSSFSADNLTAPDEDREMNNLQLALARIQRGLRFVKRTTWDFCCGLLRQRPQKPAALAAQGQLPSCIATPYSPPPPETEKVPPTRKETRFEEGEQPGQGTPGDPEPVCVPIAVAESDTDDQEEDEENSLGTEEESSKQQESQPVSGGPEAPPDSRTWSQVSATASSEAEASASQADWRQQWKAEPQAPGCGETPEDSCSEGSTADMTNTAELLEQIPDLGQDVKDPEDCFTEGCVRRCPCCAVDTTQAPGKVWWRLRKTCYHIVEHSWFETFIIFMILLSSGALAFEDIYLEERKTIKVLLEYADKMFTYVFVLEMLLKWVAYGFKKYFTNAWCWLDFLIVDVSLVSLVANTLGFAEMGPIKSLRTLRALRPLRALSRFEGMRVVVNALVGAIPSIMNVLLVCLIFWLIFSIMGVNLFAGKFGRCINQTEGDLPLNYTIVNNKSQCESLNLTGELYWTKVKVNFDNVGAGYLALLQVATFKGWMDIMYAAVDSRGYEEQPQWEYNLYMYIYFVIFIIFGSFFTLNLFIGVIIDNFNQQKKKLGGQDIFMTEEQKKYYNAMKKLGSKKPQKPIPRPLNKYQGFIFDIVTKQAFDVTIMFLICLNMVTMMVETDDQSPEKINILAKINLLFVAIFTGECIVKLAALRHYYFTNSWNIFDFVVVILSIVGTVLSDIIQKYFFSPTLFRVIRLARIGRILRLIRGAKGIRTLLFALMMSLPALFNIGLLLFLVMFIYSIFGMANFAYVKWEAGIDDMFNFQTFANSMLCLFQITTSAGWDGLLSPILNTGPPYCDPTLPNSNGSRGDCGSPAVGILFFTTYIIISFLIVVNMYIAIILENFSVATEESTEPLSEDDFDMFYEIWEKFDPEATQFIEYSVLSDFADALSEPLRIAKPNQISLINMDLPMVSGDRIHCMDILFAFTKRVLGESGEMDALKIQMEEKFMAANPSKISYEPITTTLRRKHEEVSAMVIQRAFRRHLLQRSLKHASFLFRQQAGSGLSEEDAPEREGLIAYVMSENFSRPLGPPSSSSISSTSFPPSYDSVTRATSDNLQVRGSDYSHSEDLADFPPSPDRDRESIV

Nav 1.7, sequence (Q15858 whole entry): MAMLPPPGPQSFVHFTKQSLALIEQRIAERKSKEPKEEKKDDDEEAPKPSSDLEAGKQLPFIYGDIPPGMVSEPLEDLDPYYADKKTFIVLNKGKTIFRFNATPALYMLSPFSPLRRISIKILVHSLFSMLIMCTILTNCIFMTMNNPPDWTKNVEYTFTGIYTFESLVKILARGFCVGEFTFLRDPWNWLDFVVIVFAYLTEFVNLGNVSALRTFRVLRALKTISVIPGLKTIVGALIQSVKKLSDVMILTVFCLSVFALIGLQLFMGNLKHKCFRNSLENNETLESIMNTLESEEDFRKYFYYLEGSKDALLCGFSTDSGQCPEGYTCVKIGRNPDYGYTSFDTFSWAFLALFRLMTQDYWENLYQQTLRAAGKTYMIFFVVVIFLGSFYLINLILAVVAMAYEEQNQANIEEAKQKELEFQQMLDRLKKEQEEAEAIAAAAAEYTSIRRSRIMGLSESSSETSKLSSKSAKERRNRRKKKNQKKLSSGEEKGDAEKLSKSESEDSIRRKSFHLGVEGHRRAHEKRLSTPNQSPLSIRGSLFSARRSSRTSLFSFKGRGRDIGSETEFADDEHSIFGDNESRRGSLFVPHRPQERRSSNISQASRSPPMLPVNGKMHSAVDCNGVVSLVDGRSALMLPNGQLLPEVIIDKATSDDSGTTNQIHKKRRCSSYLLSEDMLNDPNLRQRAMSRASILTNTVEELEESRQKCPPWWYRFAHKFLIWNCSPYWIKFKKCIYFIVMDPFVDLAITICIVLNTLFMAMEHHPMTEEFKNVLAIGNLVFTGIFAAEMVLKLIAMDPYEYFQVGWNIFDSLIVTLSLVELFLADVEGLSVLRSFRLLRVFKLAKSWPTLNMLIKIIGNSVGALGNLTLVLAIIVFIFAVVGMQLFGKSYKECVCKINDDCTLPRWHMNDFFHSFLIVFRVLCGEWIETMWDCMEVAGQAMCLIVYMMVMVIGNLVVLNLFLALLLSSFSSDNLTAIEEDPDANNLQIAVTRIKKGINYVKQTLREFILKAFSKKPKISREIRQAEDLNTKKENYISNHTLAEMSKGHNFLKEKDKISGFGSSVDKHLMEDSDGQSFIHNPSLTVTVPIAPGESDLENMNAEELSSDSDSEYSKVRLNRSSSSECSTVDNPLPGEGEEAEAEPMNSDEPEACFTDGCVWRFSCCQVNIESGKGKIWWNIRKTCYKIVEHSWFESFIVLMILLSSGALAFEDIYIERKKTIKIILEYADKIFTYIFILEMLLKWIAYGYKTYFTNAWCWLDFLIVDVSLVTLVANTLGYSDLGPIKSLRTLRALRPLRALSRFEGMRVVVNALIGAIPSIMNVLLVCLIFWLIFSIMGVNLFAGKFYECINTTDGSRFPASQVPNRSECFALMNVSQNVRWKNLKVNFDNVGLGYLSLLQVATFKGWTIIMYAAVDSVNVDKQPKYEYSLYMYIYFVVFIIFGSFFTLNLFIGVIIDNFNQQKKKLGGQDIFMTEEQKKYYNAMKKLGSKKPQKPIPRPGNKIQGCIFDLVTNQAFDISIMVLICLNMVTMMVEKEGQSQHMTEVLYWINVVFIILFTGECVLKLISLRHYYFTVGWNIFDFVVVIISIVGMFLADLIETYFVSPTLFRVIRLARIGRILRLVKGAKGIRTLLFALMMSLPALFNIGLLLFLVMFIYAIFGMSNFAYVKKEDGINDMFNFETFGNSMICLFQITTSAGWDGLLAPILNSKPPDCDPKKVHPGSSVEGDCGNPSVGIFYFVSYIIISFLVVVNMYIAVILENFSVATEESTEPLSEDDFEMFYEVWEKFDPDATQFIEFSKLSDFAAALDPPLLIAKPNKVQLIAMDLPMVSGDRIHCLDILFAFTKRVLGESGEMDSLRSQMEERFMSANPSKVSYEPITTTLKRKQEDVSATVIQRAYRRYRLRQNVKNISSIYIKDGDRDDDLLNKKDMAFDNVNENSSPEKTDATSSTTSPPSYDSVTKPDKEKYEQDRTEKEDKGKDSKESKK

Molecule	IC50 ([2]; in-vitro PX data)	IC50 ([2]; in-vitro PX)	further results
1-(2-chloro-3′-fluoro-5-methoxy-4-biphenylyl)-N-2-pyrimidinyl-6-isoquinolinesulfonamide [Example 108]	> 10000 nM	–	IC50 ([1]; in-vitro PX data): 86.2 nM
1-(2-cyano-5-methoxy-2′-methyl-4-biphenylyl)-N-1,3,4-thiadiazol-2-yl-6-isoquinolinesulfonamide [Example 220]	–	> 10000 nM	IC50 ([1]; in-vitro PX): 40.1 nM
1-(3′-chloro-2-cyano-5-methoxy-5′-methyl-4-biphenylyl)-N-1,3,4-thiadiazol-2-yl-6-isoquinolinesulfonamide [Example 225]	–	> 10000 nM	IC50 ([1]; in-vitro PX): 11.1 nM
1-(5-cyano-4-(5-fluoro-2-methoxy-3-pyridinyl)-2-methoxyphenyl)-N-1,3,4-thiadiazol-2-yl-6-isoquinolinesulfonamide [Example 223]	–	> 10000 nM	IC50 ([1]; in-vitro PX): 72.3 nM
COc1cc(-c2cccc(C(F)(F)F)c2)c(C#N)cc1-c1nccc2cc(S(=O)(=O)Nc3ccon3)ccc12 [Example 1, 1-(2-CYANO-5-METHOXY-3′-(TRIFLUOROMETHYL)-[1,1′-BIPHENYL]-4-YL)-N-(ISOXAZOL-3-YL)ISOQUINOLINE-6-SULFONAMIDE]	–	–	IC50 ([1]; in-vitro Nav 1.7 PX data): 54.7 nM; IC50 ([2]; in-vitro Nav 1.5 PX data): > 10000 nM
COc1cc(-c2cc(F)cc(F)c2)ccc1-c1nccc2cc(S(=O)(=O)Nc3ccsn3)ccc12 [Example 5, 1-(3′,5′-DIFLUORO-3-METHOXY-[1,1′-BIPHENYL]-4-YL)-N-(ISOTHIAZOL-3-YL)ISOQUINOLINE-6-SULFONAMIDE 2,2,2-TRIFLUOROACETATE]	> 10000 nM	–	IC50 [1]: 337 nM
COc1cc(-c2cccc(C(F)(F)F)c2)ccc1-c1nccc2cc(S(=O)(=O)Nc3ccon3)ccc12 [Example 6, N-(ISOXAZOL-3-YL)-1-(3-METHOXY-3′-(TRIFLUOROMETHYL)-[1,1′-BIPHENYL]-4-YL)ISOQUINOLINE-6-SULFONAMIDE]	> 10000 nM	–	IC50 [1]: 78.9 nM
COc1cc(-c2cccc(F)c2)c(Cl)cc1-c1nccc2cc(S(=O)(=O)Nc3ncon3)ccc12 [Example 7, 1-(2-CHLORO-3′-FLUORO-5-METHOXY-[1,1′-BIPHENYL]-4-YL)-N-(1,2,4-OXADIAZOL-3-YL)ISOQUINOLINE-6-SULFONAMIDE 2,2,2-TRIFLUOROACETATE]	> 10000 nM	–	IC50 [1]: 47.7 nM
COc1cc(-c2cccc(F)c2)c(Cl)cc1-c1nncc2cc(S(=O)(=O)Nc3nncs3)ccc12 [Example 9, 1-(2-CHLORO-3′-FLUORO-5-METHOXY-[1,1′-BIPHENYL]-4-YL)-N-(1,3,4-THIADIAZOL-2-YL)PHTHALAZINE-6-SULFONAMIDE]	> 10000 nM	–	IC50 ([1]; in-vitro PX data): 112 nM
COc1cc(-c2ccc(F)c(Cl)c2)c(C#N)cc1-c1nccc2cc(S(=O)(=O)Nc3nncs3)ccc12 [Example 221, 1-(3′-chloro-2-cyano-4′-fluoro-5-methoxy-4-biphenylyl)-N-1,3,4-thiadiazol-2-yl-6-isoquinolinesulfonamide]	–	> 10000 nM	–
COc1cc(-c2ccc(Cl)c(F)c2)c(C#N)cc1-c1nccc2cc(S(=O)(=O)Nc3nncs3)ccc12 [Example 224, 1-(4′-chloro-2-cyano-3′-fluoro-5-methoxy-4-biphenylyl)-N-1,3,4-thiadiazol-2-yl-6-isoquinolinesulfonamide]	–	> 10000 nM	–
COc1cc(-c2cccc(F)c2)c(Cl)cc1-c1ncnc2cc(S(=O)(=O)Nc3ccon3)ccc12 [Example 227, 4-(2-chloro-3′-fluoro-5-methoxy-4-biphenylyl)-N-3-isoxazolyl-7-quinazolinesulfonamide]	–	> 10000 nM	–
COc1cc(-c2ccc(Cl)c(C)c2)c(C#N)cc1-c1nccc2cc(S(=O)(=O)Nc3nncs3)ccc12 [Example 228, 1-(4′-chloro-2-cyano-5-methoxy-3′-methyl-4-biphenylyl)-N-1,3,4-thiadiazol-2-yl-6-isoquinolinesulfonamide]	–	> 10000 nM	–
COc1cc(-c2cccc(C(F)(F)F)c2)c(F)cc1-c1nn(C)c(=O)c2cc(S(=O)(=O)Nc3nncs3)ccc12 [Example 234, 1-(2-fluoro-5-methoxy-3′-(trifluoromethyl)-4-biphenylyl)-3-methyl-4-oxo-N-1,3,4-thiadiazol-2-yl-3,4-dihydro-6-phthalazinesulfonamide]	–	> 10000 nM	–
